The results in this text go back to ChEMBL document CHEMBL1781897, “Synthesis, biological evaluation of prenylflavonoids as vasorelaxant and neuroprotective agents” (Bioorg Med Chem Lett, 2009).

In test [1] the test system is Aorta. Kind of test: Vasorelaxant activity in rat aortic ring assessed as inhibition of phenylephrine-induced contraction relative to control. Type of test: functional.
The subject of test [2] is PC-12. The experiment in a line: Neuroprotective activity against oxygen-glucose deprivation-induced cell injury in rat PC12 cells assessed as cell viability at 1 uM. It counts as functional. The settings on record: read-out: Activity.
Test [3] deals with PC-12. Kind of test: Neuroprotective activity against oxygen-glucose deprivation-induced cell injury in rat PC12 cells assessed as cell viability. It counts as functional, cell-based.
For test [4], the system named is Aorta. The experiment in a line: Vasorelaxant activity in rat aortic ring assessed as inhibition of phenylephrine-induced contraction. It counts as functional, tissue-based.
The subject of test [5] is PC-12. Kind of test: Neuroprotective activity against oxygen-glucose deprivation-induced cell injury in rat PC12 cells assessed as cell viability at 30 uM. It counts as functional. The settings on record: read-out: Activity.

`CC(C)=CCc1c(O)cc(O)c2c1O/C(=C\c1ccc(O)cc1)C2=O`: in the test on Aorta [1], the Emax (usually the maximal effect, on the per cent scale that the assay sets) was found to be 74.5%. Besides, in the test on PC-12 [2], the viability at 1 µM came to 81.6%.
Turning to `COc1cc(C2CC(=O)c3c(O)cc(O)c(CC=C(C)C)c3O2)ccc1O` (centres undefined), in the test on PC-12 [3], the Activity result is “Dose-dependent effect”. For the same compound, the viability at 1 µM in the test with PC-12 [2] is 94%.
For the compound `CC(C)=CCc1c(O)cc(O)c2c1OC(c1ccc(O)cc1O)CC2=O` (racemic), the Activity result in the test on PC-12 [3] is “Dose-dependent effect”. Also, in the test on Aorta [1], the maximal response (Emax) was 94.9%. For the same compound, in the test with Aorta [4], the EC50 (as a rule, the concentration giving half of the maximal effect) turned out to be 9.3 µM. For the same compound, the viability at 1 µM with PC-12 [2] amounted to 94.8%.
In the case of `O=c1c(O)c(-c2ccc(O)c(O)c2)oc2cc(O)cc(O)c12` [QUERCETIN], in the test with Aorta [1], the Emax was 91.3%.
Turning to `CC(C)=CCc1c(O)cc(O)c2c(=O)cc(-c3ccc(O)c(O)c3)oc12`, the Emax in the test on Aorta [1] was 62.5%. In the test with PC-12 [2], the viability at 1 µM stood at 91.5%.
Consider `CC(C)=CCc1c(O)cc(O)c2c1OC(c1ccc(O)c(O)c1O)CC2=O` (centres undefined), for which the Emax in the test on Aorta [1] was 69.7%. In addition, the viability at 1 µM in the test on PC-12 [2] was found to be 90.3%.
As for `COc1cc([C@@H]2CC(=O)c3c(O)cc(O)cc3O2)ccc1O` (racemic) [HOMOERIODICTYOL], the Emax with Aorta [1] was 74.9%. In addition, in the test on Aorta [4], the EC50 came out at 82 µM. For the same compound, the viability at 1 µM in the test with PC-12 [2] amounted to 89.1%.
For `CC(C)=CCc1c(O)cc(O)c2c(=O)cc(-c3ccc(O)cc3O)oc12`, the Activity entry in the test with PC-12 [3] was “Dose-dependent effect”. In the test on Aorta [1], the Emax was 91.5%. The EC50 with Aorta [4] was 176 µM. Besides, in the test on PC-12 [2], the viability at 1 µM is 93.5%.
For the compound `COc1cc(C2CC(=O)c3c(O)cc(O)c(CC=C(C)C)c3O2)cc(OC)c1OC` (centres undefined), in the test with Aorta [1], the Emax came out at 66.3%. In addition, in the test with Aorta [4], the EC50 was determined as 25 µM. Further, the viability at 1 µM in the test with PC-12 [2] was 89.1%.
`CC(C)=CCc1c(O)cc(O)c2c(=O)cc(-c3ccc(O)c(O)c3O)oc12`: the viability at 1 µM in the test on PC-12 [2] amounted to 88.6%.
`CC(C)=CCc1c(O)cc(O)c2c1OC(c1ccc(O)cc1)CC2=O` (centres undefined) [SOPHORAFLAVANONE B]: the Emax in the test on Aorta [1] was 101%. Further, in the test with Aorta [4], the concentration giving a half-maximal response (EC50) was 72.7 µM. Also, the viability at 1 µM with PC-12 [2] came to 89.3%.
For `CC(C)=CCc1c(O)cc(O)c2c1OC(c1cccc(Br)c1)CC2=O` (centres undefined), in the test on PC-12 [2], the viability at 1 µM came to 88.1%.
`CC1=NN(c2ccccc2)C(=O)C1` [EDARAVONE]: the viability at 30 µM in the test on PC-12 [5] came to 93.2%.
As to `CC(C)=CCc1c(O)cc(O)c2c1O/C(=C\c1ccc(O)cc1O)C2=O`, the Emax in the test with Aorta [1] was determined as 30.5%. In the test on PC-12 [2], the viability at 1 µM came out at 90.4%.
In the case of `CC(C)=CCc1c(O)cc(O)c(C(=O)/C=C/c2ccc(O)cc2)c1O` [DEMETHYLXANTHOHUMOL], the Emax with Aorta [1] was 81.4%. Moreover, in the test with Aorta [4], the concentration giving a half-maximal response (EC50) is 8.5 µM. In the test on PC-12 [2], the viability at 1 µM was determined as 86.7%.
